Data published in patent US12419305B2, “Antimicrobial compositions” (Firmenich SA, priority 2018, dated 2025).
Read-outs that look alike come from different tables or passages of the source.

System: C. xerosis ATCC 373
Test: BCT test (bacterial contact time), 120 s, log reduction / effect fraction; CI by Compusyn
Format: cell-based
Conditions: Corynebacterium xerosis, ATCC373, 2 min; for log reduction at 0.75 % strength: dose 0.75% w/v; for log reduction at 1 % strength: dose 1.0% w/v; for log reduction at 1.25 % strength: dose 1.25% w/v; for log reduction at 1.5 % strength: dose 1.5% w/v; for log reduction at 0.5 % strength: dose 0.5% w/v; for log reduction at 0.6 % strength: dose 0.6% w/v; for log reduction at 0.1 % strength: dose 0.1% w/v; for log reduction at 0.15 % strength: dose 0.15% w/v
Description: C. xerosis: Suspensions of the C. xerosis ATCC 373 strain were prepared as follows: Stock cultures (stored at −80° C.) were thawed and subcultured onto Tryptic Soy Agar media with Tween 80 (TSA-TW80), and incubated at 37° C. for 48 h. The primary cultures were subcultured onto TSA-TW80 again, to prepare the secondary cultures. Single colonies of the secondary cultures were selected and used to inoculate 30 ml brain heart infusion broth with Tween 80 (BHI-TW80). The inoculated broth was incubated at 37° C. at 180 rpm for 24 h. Aliquots (1 ml) of the 24 h culture were inoculated into 30 ml of fresh BHI-TW80 broth media, and incubated at 37° C. at 180 rpm for 48 h. Aliquots (2-3 ml) of the 48 h culture were inoculated into four 50 ml of fresh BHI-TW80 broth media, and incubated at 37° C. 180 rpm for 4-6 hrs. When the OD 600 nm reached the target value of 1.6, cells were harvested by centrifugation at 5000 rpm for 10 min, and then resuspended in the same fresh BHI-TW80 at a concentration of 10^9 to 10^10 cfu/mL. This suspension was used as the bacterial suspension for the BCT test.
BCT Test: Test compositions at a range of concentrations (either combinations of more than one perfume ingredient, and comparative compositions comprising the single perfume ingredients) were prepared in ethanol. Five replicates of each test composition were added into 96-well microtiter plates (120 μl per well), with row B containing control compositions containing the ethanol solution alone. 120 μl of bacterial cell suspensions at a concentration of approximately 1×10^8 bacteria per mL (as prepared above) were added to each well of the microtiter plate. The bacterial suspensions were incubated with the test solutions for 45, 60, or 120 seconds. Following the incubation of the bacterial suspensions with the test solutions, serial dilutions of the bacterial suspensions were generated (three serial 1:10 dilutions, followed by 17 serial 1:2 dilutions), in multiwell microtiter plates.
Each plate was sealed and incubated at 37° C. under agitation (180 rpm). After incubation, the turbidity of the wells (OD600 nm) was determined using a Tecan microplate reader. Turbid wells were regarded as positive growth, due to the presence of viable cells. The total number of viable cells (log CFU) for each sample was calculated. And the log reduction for each test composition at the final concentration (dose) was calculated against the control sample of the ethanol solution.
Determination of Synergy via the Combination Index (CI): The CI was calculated using Compusyn software (ComboSyn, Inc., as created by Dr. Dorothy Chou in 2005), according to the manufacturer's instructions. The concentration of each test composition (combinations of more than one perfume ingredient, and comparative compositions comprising the single perfume ingredients used to generate the combination) and their corresponding effect fraction was entered, and the corresponding CI calculated.
When the calculated CI values were less than 0.9, the combination of perfume ingredients was regarded as having synergistic effect. When the calculated CI was between 1.0 a 0.9, the combination of perfume ingredients was regarded as having an additive effect. When the calculated CI was greater than 1.0, the combination of perfume ingredients was regarded as having an antagonistic effect.

[1] = dose 0.25% w/v, contact 120 s, 25% EtOH, read-out: Log reduction
[2] = dose 0.3% w/v, contact 120 s, 25% EtOH, read-out: Log reduction
[3] = dose 0.4% w/v, contact 120 s, 25% EtOH, read-out: Log reduction
[4] = dose 0.2% w/v, contact 120 s, 25% EtOH, read-out: Log reduction

## O=c1ccc2ccccc2o1 [Coumarine, 2H-chromen-2-one]
Contact 120 s, 25% EtOH
  log reduction at 0.75 % strength: -0.2
  log reduction at 1 % strength: 0.8
  log reduction at 1.25 % strength: 2.6
  log reduction at 1.5 % strength: 2.7

## C/C=C/c1ccc(O)c(OC)c1 [Isoeugenol, 2-Methoxy-4-(prop-1-en-1-yl)phenol]
[1]
  log reduction at 0.25 % strength: 2.4
[2]
  log reduction at 0.3 % strength: 3.4
[3]
  log reduction at 0.4 % strength: 5
Contact 120 s, 25% EtOH
  log reduction at 0.5 % strength: 6.3
  log reduction at 0.6 % strength: 6.6

## Cc1ccc2c(c1)OCC(=O)CO2 [Calone, 7-methyl-2H-1,5-benzodioxepin-3(4H)-one]
Contact 120 s, 25% EtOH
  log reduction at 0.5 % strength: 0.2
  log reduction at 0.75 % strength: 0.6
  log reduction at 1 % strength: 3.2
  log reduction at 1.25 % strength: 6
  log reduction at 1.5 % strength: 6.8

## OC/C=C/c1ccccc1 [Cinnamic alcohol, (2E)-3-phenyl-2-propen-1-ol]
[1]
  log reduction at 0.25 % strength: 0
Contact 120 s, 25% EtOH
  log reduction at 0.5 % strength: 2.9
  log reduction at 0.6 % strength: 4.3
Dose 0.7% w/v, contact 120 s, 25% EtOH
  log reduction at 0.7 % strength: 6
Dose 0.8% w/v, contact 120 s, 25% EtOH
  log reduction at 0.8 % strength: 7.2

## CC(=O)OCc1ccccc1 [Benzyl acetate, benzyl acetate]
[1]
  log reduction at 0.25 % strength: 0
[3]
  log reduction at 0.4 % strength: 1.1
Contact 120 s, 25% EtOH
  log reduction at 0.5 % strength: 2.8
  log reduction at 0.75 % strength: 4.6
  log reduction at 1 % strength: 5.2

## CCCCCCC1CCC(=O)O1 (stereo not shown) [Decal]
Contact 120 s, 25% EtOH
  log reduction at 0.1 % strength: 0.1
  log reduction at 0.15 % strength: 2.2
[4]
  log reduction at 0.2 % strength: 4.6
[1]
  log reduction at 0.25 % strength: 5.4
[2]
  log reduction at 0.3 % strength: 6.1

## CC(C)=CCC/C(C)=C\CO [Nerol, (Z)-3,7-dimethyl-2,6-octadien-1-ol]
Dose 0.08% w/v, contact 120 s, 25% EtOH
  log reduction at 0.08 % strength: -0.1
Contact 120 s, 25% EtOH
  log reduction at 0.1 % strength: 0.5
Dose 0.12% w/v, contact 120 s, 25% EtOH
  log reduction at 0.12 % strength: 2.6
Dose 0.14% w/v, contact 120 s, 25% EtOH
  log reduction at 0.14 % strength: 4.9
Dose 0.16% w/v, contact 120 s, 25% EtOH
  log reduction at 0.16 % strength: 7.2

## CC(C)=CCC/C(C)=C/CO [Geraniol Pur]
Contact 120 s, 25% EtOH
  log reduction at 0.1 % strength: 0.9
  log reduction at 0.15 % strength: 4.8
Dose 0.125% w/v, contact 120 s, 25% EtOH
  log reduction at 0.125 % strength: 3.6
Dose 0.175% w/v, contact 120 s, 25% EtOH
  log reduction at 0.175 % strength: 6.8
[4]
  log reduction at 0.2 % strength: 7

## CC(C=O)Cc1ccc2c(c1)OCO2 (stereo not shown) [Heliopropanal, 3-(1,3-Benzodioxol-5-yl)-2-methylpropanal]
  log reduction at 0.2 % strength: 0.1
  log reduction at 0.25 % strength: 0.3
  log reduction at 0.3 % strength: 1.4
  log reduction at 0.35 % strength: 1.8
  log reduction at 0.4 % strength: 2.2

## CC1=CCC(C(C)(C)O)CC1 (stereo not shown) [Terpineol Ord, 2-(4-Methylcyclohex-3-en-1-yl)propan-2-ol]
[1]
  log reduction at 0.25 % strength: 2.9
[2]
  log reduction at 0.3 % strength: 3.9
Dose 0.35% w/v, contact 120 s, 25% EtOH, read-out: Log reduction
  log reduction at 0.35 % strength: 6
[3]
  log reduction at 0.4 % strength: 6.4

## CC(CCO)CCc1ccccc1 (stereo not shown) [Phenylhexanol, 3-methyl-5-phenyl-1-pentanol]
Contact 120 s, 25% EtOH
  log reduction at 0.15 % strength: 2.5
[4]
  log reduction at 0.2 % strength: 4.2
[1]
  log reduction at 0.25 % strength: 5.1
[2]
  log reduction at 0.3 % strength: 5.9

## CCC(C)(O)CCCC(C)C (stereo not shown) [Tetralinol, 3,7-Dimethyl-3-octanol]
Dose 0.05% w/v, contact 120 s, 25% EtOH
  log reduction at 0.05 % strength: 0.1
[4]
  log reduction at 0.2 % strength: 5.7
[1]
  log reduction at 0.25 % strength: 6.4
[2]
  log reduction at 0.3 % strength: 6.5

## C=C(C)[C@@H]1CC=C(CO)CC1 [Perycorolle, (S)-(−)-(4-Isopropenyl-1-cyclohexenyl)methanol]
Contact 120 s, 25% EtOH
  log reduction at 0.1 % strength: 0.2
  log reduction at 0.15 % strength: 3.4
[4]
  log reduction at 0.2 % strength: 4.8
[1]
  log reduction at 0.25 % strength: 6.5
[2]
  log reduction at 0.3 % strength: 6.4

## C=CCc1ccc(O)c(OC)c1 [Eugenol F, 2-Methoxy-4-(prop-2-en-1-yl)phenol]
Contact 120 s, 25% EtOH
  log reduction at 0.1 % strength: 0.1
  log reduction at 0.5 % strength: 6.3
[4]
  log reduction at 0.2 % strength: 0.4
[1]
  log reduction at 0.25 % strength: 1.8
[2]
  log reduction at 0.3 % strength: 2.7
[3]
  log reduction at 0.4 % strength: 5.1
